Measurements taken from PMC8557474, “Reliability of the AR-CALUX®In Vitro Method Used to Detect Chemicals with (Anti)Androgen Activity: Results of an International Ring Trial” (Toxicological Sciences, 2021).
In brackets after ≈: the same amount, converted by molar mass. Read-outs that look alike come from different tables or passages of the source. Starred links: 1 amine or outer side, 2 acyl side, 3 side chain; linkers in the order of their positions; H or OH if unused. Positions of bridges follow the written chain, without caps; N, C: chain ends. Non-standard residues stand in square brackets, D forms with d. Residues, ends and D or L forms follow the SMILES beside them. Chains are numbered I, II in the order given. Actinocin(9to1) = Cc1c2oc3c(C)ccc(C(=O)[*:1])c3nc-2c(C(=O)[*:2])c(N)c1=O; NMeV = CN[C@H](C(=O)O)C(C)C; Sar = CNCC(=O)O

Legend:
[1] = test system: androgen receptor; set-up: method as in Park et al., 2021; details: ref Park et al., 2021; cited from earlier work
[2] = test system: androgen receptor; details: ref OECD, 2020b; cited from earlier work
[3] = target: T1, human androgen receptor (hAR) (Homo sapiens, UniProt P10275); test: AR-CALUX antagonist assay (medium spiked with DHT at EC50); assay type: cell-based
T1 construct: host or cells: U2-OS human osteosarcoma cells (ATCC HTB 96), stably transfected (AR-CALUX cell line)
T1 sequence (P10275 1-920): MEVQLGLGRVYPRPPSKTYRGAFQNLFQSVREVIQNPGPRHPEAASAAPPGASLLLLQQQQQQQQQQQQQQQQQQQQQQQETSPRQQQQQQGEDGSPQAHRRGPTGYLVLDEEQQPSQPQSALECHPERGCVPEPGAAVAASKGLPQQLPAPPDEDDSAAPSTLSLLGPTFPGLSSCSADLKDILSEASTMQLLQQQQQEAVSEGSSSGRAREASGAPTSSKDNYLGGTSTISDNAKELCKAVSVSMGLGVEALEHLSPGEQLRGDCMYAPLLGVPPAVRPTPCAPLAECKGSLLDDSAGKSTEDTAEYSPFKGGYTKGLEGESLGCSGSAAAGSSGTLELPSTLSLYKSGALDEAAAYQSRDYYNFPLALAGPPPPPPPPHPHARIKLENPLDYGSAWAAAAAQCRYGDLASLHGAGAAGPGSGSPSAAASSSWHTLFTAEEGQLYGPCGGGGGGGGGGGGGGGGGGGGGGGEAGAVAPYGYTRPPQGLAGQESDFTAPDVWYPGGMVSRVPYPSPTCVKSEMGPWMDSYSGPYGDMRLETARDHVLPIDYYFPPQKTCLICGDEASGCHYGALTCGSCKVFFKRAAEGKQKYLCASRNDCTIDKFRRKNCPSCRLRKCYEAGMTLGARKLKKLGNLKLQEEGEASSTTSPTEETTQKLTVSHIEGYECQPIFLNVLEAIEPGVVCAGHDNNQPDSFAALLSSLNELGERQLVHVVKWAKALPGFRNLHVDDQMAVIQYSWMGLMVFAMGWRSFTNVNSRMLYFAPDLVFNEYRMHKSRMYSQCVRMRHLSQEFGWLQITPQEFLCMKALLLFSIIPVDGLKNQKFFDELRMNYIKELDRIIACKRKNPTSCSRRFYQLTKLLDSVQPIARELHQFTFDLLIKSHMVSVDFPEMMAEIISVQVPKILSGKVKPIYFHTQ
Description: (§1) The AR-CALUX® cell line was created by BioDetection Systems (BDS). It can be purchased from BDS with a license (https://www.biodetectionsystems.com). The human osteosarcoma cell line U2-OS (ATCC HTB 96) was transfected with 2 constructs: pSG5-neo-hAR carrying the cDNA of a human androgen receptor (hAR) under a constitutive promoter, and, a luciferase reporter gene which is preceded by a triple tandem of AREs in front of a TATA box (3x ARE Luc). […] The AR-CALUX® cell line was obtained from the test method developer BDS. EURL ECVAM prepared a master cell bank and a large working cell bank which were tested for the absence of mycoplasma, bacteria, fungi, and yeast and for the absence of Hepatitis B and C and HIV. In addition, to verifying the authenticity of the cell line, Short Tandem Repeat (STR) profiling was carried out to confirm the test system to be U2-OS cells. […] The laboratories were requested, at the end of each part of the study (Parts 1, 2, and 3), to perform a mycoplasma test of their choice. Additional aliquots were sent to EURL ECVAM for a reanalysis of authenticity.
(§2) Subsequently, the test chemical was assessed with a prescreen run (dilution steps of 10) and simultaneously with the quantitative cytotoxicity test to determine (1) cytotoxic concentrations, (2) the response, and (3) the appropriate dose range to be tested. […] The cytotoxicity test was performed once more. Test chemicals were diluted in media and consisted of 8 serial dilutions. Each dilution was tested in triplicate.
(§3) Each experiment (run) was comprised of a maximum of 6 plates. The first plate would contain 8 serial dilutions of the reference chemical DHT (for agonism) or Flutamide (for antagonism), while the positive and negative controls were added at fixed concentrations. In addition, a solvent control was added (medium without the chemical but with DMSO 0.1%).
(§4) For the antagonist assay, the medium was supplemented with DHT at EC50 concentration (standard assay). […] Each antagonist assay was accompanied by a specificity control test carried out on the same plate.
A. Positive (competitive antagonist) when the relative induction (Yc) of the test item is ≤ 80% (REF RPC80) for two or more consecutive concentrations and […]

[4] = target: T1, human androgen receptor (hAR); test: cell-based; assay type: cell-based
Description: as §1, §2, §3
A. Positive when the relative induction (Yc) of the test item is ≥ 10% (REF RPC10) for two or more consecutive concentrations.

[5] = target: T1, human androgen receptor (hAR); assay type: cell-based
Description: as §4
the square of the correlation coefficient (R^2) is ≤ 0.9 between the relative induction of the test item (Yc) and its specificity control (Sc)

[6] = physchem
Method: It details the cell cultivation and seeding procedure, the preparation of the reference, control and test chemicals, the procedure for agonist testing and antagonist testing, prescreen runs, and comprehensive runs, as well as data analysis and data interpretation. This SOP also includes references to the SOPs for solubility testing and cytotoxicity testing. […] Solubility was tested both in the solvent and in media under similar circumstances as would be required during the (ant)agonist testing. The initial concentration to be tested was prescribed at 50 mg/ml. Starting from the highest soluble concentration, cytotoxicity was determined with an LDH assay. Visual checking of cytotoxicity in all wells of the plate was however also required for each run.
This included an investigation by heating, centrifugation, microscopy, and visual checking. […] For the purpose of the validation study, the labs were requested to start from 50 mg/ml as the maximal stock concentration to be tested.

C#C[C@]1(O)CC[C@H]2[C@@H]3CCc4cc(O)ccc4[C@H]3CC[C@@]21C [17α-Ethynyl estradiol]
22Rv1/MMTV/GR-KO TA agonist result in words [1]: positive | AR-EcoScreen agonist result in words [2]: negative

C[C@]12C=CC3=C4CCC(=O)C=C4CC[C@H]3[C@@H]1CC[C@@H]2O [17β-Trenbolone]
Antagonist classification per run, Lab 1 [3]: N N N | Antagonist classification per run, Lab 2 [3]: N N N | Antagonist classification per run, Lab 3 [3]: − N N | Antagonist classification per run, Lab 4 [3]: N N N | Agonist classification per run, Lab 1 [4]: P P P | Agonist classification per run, Lab 2 [4]: P P P | Agonist classification per run, Lab 3 [4]: P P P | Agonist classification per run, Lab 4 [4]: P P P | EC50 [4]: 0.245 nM

Cc1c2oc3c(C)ccc(C(=O)N[C@@H]4C(=O)N[C@H](C(C)C)C(=O)N5CCC[C@H]5C(=O)N(C)CC(=O)N(C)[C@@H](C(C)C)C(=O)O[C@@H]4C)c3nc-2c(C(=O)N[C@@H]2C(=O)N[C@H](C(C)C)C(=O)N3CCC[C@H]3C(=O)N(C)CC(=O)N(C)[C@@H](C(C)C)C(=O)O[C@@H]2C)c(N)c1=O [Actinomycin D] (I: T[dV]P[Sar][NMeV] / II: T[dV]P[Sar][NMeV]; ester I:1-I:C, II:1-II:C; linker I:N-II:N via Actinocin(9to1))
AR-CALUX antagonist result in words [3]: false positive response | AR-CALUX Antagonist classification ([3]; mean of classifications, specificity control taken into account): N(FP) | Scn (normalized dose response for the specificity control) [5]: >80% | Classification Run1 ([5]; antagonist, run 1): N | Classification Run2 ([5]; antagonist, run 2): N(FP) | Classification Run3 ([5]; antagonist, run 3): N(FP) | Shift Direction of specificity control dose response ([5]; vs standard antagonist dose response): Right

CC(C)(c1ccc(O)cc1)c1ccc(O)cc1 [Bisphenol A]
Antagonist classification per run, Lab 1 ([3]; Lab 1, 3 runs): P P P | Antagonist classification per run, Lab 2 ([3]; Lab 2, 3 runs): P P P | Antagonist classification per run, Lab 3 ([3]; Lab 3, 3 runs): P P P | Antagonist classification per run, Lab 4 ([3]; Lab 4, 3 runs): P P P | IC50 ([3]; logIC50 averaged over 4 labs, 3 valid runs per lab, read-out: Antagonist Overall logIC50 (converted)): 1380 nM | solubility ([6]; aqueous buffer, kinetic from dmso stock, Solubility in medium, Lab 1): 15 µg/mL (≈ 65.7 µM) | solubility ([6]; aqueous buffer, kinetic from dmso stock, Solubility in medium, Lab 2): > 50 µg/mL | solubility ([6]; aqueous buffer, kinetic from dmso stock, Solubility in medium, Lab 3): > 50 µg/mL | solubility ([6]; aqueous buffer, kinetic from dmso stock, Solubility in medium, Lab 4): > 50 µg/mL | solubility ([6]; organic solvent or mixture, thermodynamic from solid, Solubility in DMSO, Lab 1): > 50000 µg/mL | solubility ([6]; organic solvent or mixture, thermodynamic from solid, Solubility in DMSO, Lab 2): > 50000 µg/mL | solubility ([6]; organic solvent or mixture, thermodynamic from solid, Solubility in DMSO, Lab 3): > 50000 µg/mL | solubility ([6]; organic solvent or mixture, thermodynamic from solid, Solubility in DMSO, Lab 4): > 50000 µg/mL | Agonist classification per run, Lab 1 ([4]; Lab 1, 3 runs): N N N | Agonist classification per run, Lab 2 ([4]; Lab 2, 3 runs): N N N | Agonist classification per run, Lab 3 ([4]; Lab 3, 3 runs): N N N | Agonist classification per run, Lab 4 ([4]; Lab 4, 3 runs): N N N
